Measurements as given in ChEMBL document CHEMBL4828739, “Study on the structure-activity relationship of dihydroartemisinin derivatives: Discovery, synthesis, and biological evaluation of dihydroartemisinin-bile acid conjugates as potential anticancer agents” (Eur J Med Chem, 2021).

How the values were obtained:
Format in all cases: ADME, organism-based
[1] = AUClast in Sprague-Dawley rat plasma at 10 mg/kg, po by UPLC-MS/MS analysis; design: route oral, time 0 - last, dose 10 mg/kg
[2] = AUC (0 to infinity) in Sprague-Dawley rat plasma at 5 mg/kg, iv by UPLC-MS/MS analysis; design: route intravenous, time infinity, dose 5 mg/kg
[3] = Tmax in Sprague-Dawley rat plasma at 10 mg/kg, po by UPLC-MS/MS analysis
[4] = Half life in Sprague-Dawley rat plasma at 5 mg/kg, iv by UPLC-MS/MS analysis
[5] = Clearance in Sprague-Dawley rat plasma at 5 mg/kg, iv by UPLC-MS/MS analysis
[6] = AUClast in Sprague-Dawley rat plasma at 5 mg/kg, iv by UPLC-MS/MS analysis; design: route intravenous, time 0 - last, dose 5 mg/kg
[7] = Half life in Sprague-Dawley rat plasma at 10 mg/kg, po by UPLC-MS/MS analysis
[8] = AUC (0 to infinity) in Sprague-Dawley rat plasma at 10 mg/kg, po by UPLC-MS/MS analysis; design: time infinity, route oral, dose 10 mg/kg
[9] = MRT (0 to infinity) in Sprague-Dawley rat plasma at 5 mg/kg, iv by UPLC-MS/MS analysis
[10] = Cmax in Sprague-Dawley rat plasma at 10 mg/kg, po by UPLC-MS/MS analysis; design: route oral, dose 10 mg/kg
[11] = Oral bioavailability in Sprague-Dawley rat plasma at 10 mg/kg by UPLC-MS/MS analysis
[12] = Volume of distribution at steady state in Sprague-Dawley rat plasma at 5 mg/kg, iv by UPLC-MS/MS analysis; settings: read-out: Vdss

In the case of `C[C@H]1[C@@H](O[C@@H]2CC[C@@]3(C)[C@@H](C2)C[C@H](O)[C@@H]2[C@@H]3CC[C@]3(C)[C@@H]([C@H](C)CCC(=O)O)CC[C@@H]23)O[C@@H]2O[C@]3(C)CC[C@H]4[C@H](C)CC[C@@H]1[C@@]24OO3`, the AUC(0-t) [1] is reported as 4.19 µg·h/mL, the AUC(0-inf) [2] is reported as 10.2 µg·h/mL and the Tmax [3] is reported as 100 min. For the same compound, the half-life [4] was 46.4 min, the clearance [5] was 0.492 L/h/kg and the AUC(0-t) [6] was 10.2 µg·h/mL. For the same compound, the half-life [7] was 49.4 min, the AUC(0-inf) [8] was 4.43 µg·h/mL and the MRT inf [9] was 42.2 min. It also gave a Cmax [10] of 1.11 µg/mL, a bioavailability [11] of 20.6% and a Vd [12] of 0.346 L/kg.
